PubChem BioAssay (NCI)
Several values for one entry are separate records, joined by “and”; a condition that tells them apart may be missing. Equal values may be shown once.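 1) Cells in 96-well plates. 2) Compound, 48 h, 5 concentrations. 3) Linear interpolation between surrounding doses. 4) Unreached endpoint = highest concentration. Abbreviation: GI50, concentration required for 50% inhibition of growth. TGI denotes the concentration required for complete inhibition of growth.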

Experiments:
Assay in all cases: NCI-60 cell line screen, 48 h
HCT-15 colon = system: HCT-15 colon
HL-60(TB) leukemia = system: HL-60(TB) leukemia
MDA-N = system: MDA-N
BT-549 breast = system: BT-549 breast
TK-10 renal = system: TK-10 renal
MDA-MB-231 breast = system: MDA-MB-231 breast
T-47D breast = system: T-47D breast
M14 melanoma = system: M14 melanoma
A549 NSCLC = system: A549 NSCLC
OVCAR-8 ovarian = system: OVCAR-8 ovarian
HCC-2998 colon = system: HCC-2998 colon
OVCAR-5 ovarian = system: OVCAR-5 ovarian
NCI-H460 lung = system: NCI-H460 lung
HOP-92 NSCLC = system: HOP-92 NSCLC
DU-145 prostate = system: DU-145 prostate
SF-539 CNS = system: SF-539 CNS
RPMI-8226 leukemia = system: RPMI-8226 leukemia
SF-268 CNS = system: SF-268 CNS
MALME-3M melanoma = system: MALME-3M melanoma
CCRF-CEM leukemia = system: CCRF-CEM leukemia
OVCAR-4 ovarian = system: OVCAR-4 ovarian
SK-OV-3 ovarian = system: SK-OV-3 ovarian
HCT-116 colon = system: HCT-116 colon
SK-MEL-5 melanoma = system: SK-MEL-5 melanoma
RXF 393 renal = system: RXF 393 renal
PC-3 prostate = system: PC-3 prostate
HOP-62 NSCLC = system: HOP-62 NSCLC
K-562 leukemia = system: K-562 leukemia
LOX IMVI melanoma = system: LOX IMVI melanoma
SNB-75 CNS = system: SNB-75 CNS
NCI/ADR-RES ovarian = system: NCI/ADR-RES ovarian
UACC-62 melanoma = system: UACC-62 melanoma
IGROV1 ovarian = system: IGROV1 ovarian
EKVX NSCLC = system: EKVX NSCLC
NCI-H23 lung = system: NCI-H23 lung
NCI-H522 lung = system: NCI-H522 lung
MDA-MB-435 = system: MDA-MB-435
SK-MEL-2 melanoma = system: SK-MEL-2 melanoma
OVCAR-3 ovarian = system: OVCAR-3 ovarian
UACC-257 melanoma = system: UACC-257 melanoma
ACHN renal = system: ACHN renal
KM12 colon = system: KM12 colon
SNB-19 CNS = system: SNB-19 CNS
CAKI-1 renal = system: CAKI-1 renal
786-0 renal = system: 786-0 renal
U251 CNS = system: U251 CNS
UO-31 renal = system: UO-31 renal
SW-620 colon = system: SW-620 colon
MCF7 breast = system: MCF7 breast
SF-295 CNS = system: SF-295 CNS
NCI-H226 lung = system: NCI-H226 lung
HS 578T breast = system: HS 578T breast
COLO 205 colon = system: COLO 205 colon
MOLT-4 leukemia = system: MOLT-4 leukemia
SN12C renal = system: SN12C renal
SK-MEL-28 melanoma = system: SK-MEL-28 melanoma
SR leukemia = system: SR leukemia
A498 renal = system: A498 renal
HT29 colon = system: HT29 colon

`Cc1[nH]c(/C=C2\C(=O)Nc3ccccc32)c(C)c1CCC(=O)O` was tested, and the TGI (HCT-15 colon) was > 100 µM, the GI50 (HL-60(TB) leukemia) was 20.2 µM and the TGI (HL-60(TB) leukemia) was 45.8 µM. For the same compound, the TGI (MDA-N) was > 100 µM, the GI50 (BT-549 breast) was 22.5 µM and the TGI (BT-549 breast) was 73.9 µM and > 100 µM. The GI50 (TK-10 renal) was 35 µM, the TGI (TK-10 renal) was > 100 µM and the GI50 (MDA-MB-231 breast) was 20.7 µM. The TGI (MDA-MB-231 breast) was > 73.7 µM and 75.9 µM, the TGI (T-47D breast) was > 100 µM and the GI50 (M14 melanoma) was 17 µM. The TGI (M14 melanoma) was 49.3 µM and 58.8 µM, the GI50 (A549 NSCLC) was 24.3 µM and the TGI (A549 NSCLC) was > 100 µM. For the same compound, the GI50 (OVCAR-8 ovarian) was 34.7 µM, the TGI (OVCAR-8 ovarian) was > 100 µM and the TGI (HCC-2998 colon) was > 100 µM. For the same compound, the GI50 (OVCAR-5 ovarian) was 21.5 µM, the TGI (OVCAR-5 ovarian) was 81.8 µM and 97.4 µM and the GI50 (NCI-H460 lung) was 21.3 µM. The TGI (NCI-H460 lung) was 57 µM and > 100 µM, the GI50 (HOP-92 NSCLC) was 12.7 µM and the TGI (HOP-92 NSCLC) was 43.2 µM and 62.8 µM. For the same compound, the GI50 (DU-145 prostate) was 35.4 µM, the TGI (DU-145 prostate) was > 100 µM and the GI50 (SF-539 CNS) was 12.3 µM. For the same compound, the TGI (SF-539 CNS) was 42.2 µM, the TGI (RPMI-8226 leukemia) was 65 µM and 75.3 µM and the GI50 (SF-268 CNS) was 25.1 µM. For the same compound, the TGI (SF-268 CNS) was > 100 µM, the GI50 (MALME-3M melanoma) was 10.7 µM and the TGI (MALME-3M melanoma) was 36.8 µM and 75.6 µM. For the same compound, the GI50 (CCRF-CEM leukemia) was 28.3 µM, the TGI (CCRF-CEM leukemia) was > 100 µM and the TGI (OVCAR-4 ovarian) was > 100 µM. For the same compound, the GI50 (SK-OV-3 ovarian) was 19.5 µM, the TGI (SK-OV-3 ovarian) was 59.5 µM and 80.6 µM and the GI50 (HCT-116 colon) was 25.9 µM. For the same compound, the TGI (HCT-116 colon) was > 100 µM, the GI50 (SK-MEL-5 melanoma) was 19.8 µM and the TGI (SK-MEL-5 melanoma) was 48.7 µM and 81.5 µM. For the same compound, the GI50 (RXF 393 renal) was 19.2 µM, the TGI (RXF 393 renal) was 63.3 µM and 90.5 µM and the GI50 (PC-3 prostate) was 31.4 µM. The TGI (PC-3 prostate) was > 100 µM, the GI50 (HOP-62 NSCLC) was 23.7 µM and the TGI (HOP-62 NSCLC) was > 100 µM. For the same compound, the TGI (K-562 leukemia) was > 100 µM, the GI50 (LOX IMVI melanoma) was 23.1 µM and the TGI (LOX IMVI melanoma) was 75.9 µM and 89.2 µM. For the same compound, the TGI (SNB-75 CNS) was 56.1 µM and 59.8 µM, the TGI (NCI/ADR-RES ovarian) was > 100 µM and the GI50 (UACC-62 melanoma) was 17.7 µM. The TGI (UACC-62 melanoma) was 58.1 µM and 95.6 µM, the TGI (IGROV1 ovarian) was > 100 µM and the GI50 (EKVX NSCLC) was 20.9 µM. For the same compound, the TGI (EKVX NSCLC) was 89.9 µM and 97.4 µM, the GI50 (NCI-H23 lung) was 20.3 µM and the TGI (NCI-H23 lung) was 73.4 µM and > 100 µM. The TGI (NCI-H522 lung) was > 100 µM, the GI50 (MDA-MB-435) was 23.5 µM and the TGI (MDA-MB-435) was 84.2 µM and > 100 µM. For the same compound, the TGI (SK-MEL-2 melanoma) was 38.5 µM and 38.8 µM, the GI50 (OVCAR-3 ovarian) was 28.8 µM and the TGI (OVCAR-3 ovarian) was > 100 µM and 73.3 µM. The GI50 (UACC-257 melanoma) was 20.4 µM, the TGI (UACC-257 melanoma) was 63 µM and 81.1 µM and the TGI (ACHN renal) was > 100 µM. For the same compound, the GI50 (KM12 colon) was 7.79 µM, the TGI (KM12 colon) was 51.2 µM and > 100 µM and the GI50 (SNB-19 CNS) was 20.9 µM. For the same compound, the TGI (SNB-19 CNS) was > 100 µM, the GI50 (CAKI-1 renal) was 15.9 µM and the TGI (CAKI-1 renal) was 68.1 µM and > 100 µM. The GI50 (786-0 renal) was 44.1 µM, the TGI (786-0 renal) was > 100 µM and the GI50 (U251 CNS) was 38.1 µM. For the same compound, the TGI (U251 CNS) was > 100 µM, the GI50 (UO-31 renal) was 11.6 µM and the TGI (UO-31 renal) was 43.6 µM and > 100 µM. For the same compound, the GI50 (SW-620 colon) was 18.8 µM, the TGI (SW-620 colon) was 52.8 µM and 71.1 µM and the GI50 (MCF7 breast) was 23.9 µM. For the same compound, the TGI (MCF7 breast) was > 100 µM, the GI50 (SF-295 CNS) was 24.9 µM and the TGI (SF-295 CNS) was > 100 µM. For the same compound, the GI50 (NCI-H226 lung) was 15.2 µM, the TGI (NCI-H226 lung) was 42.6 µM and the GI50 (HS 578T breast) was 9.45 µM. The TGI (HS 578T breast) was 51.9 µM and > 100 µM, the TGI (COLO 205 colon) was 43 µM and 45.9 µM and the GI50 (MOLT-4 leukemia) was 26.5 µM. For the same compound, the TGI (MOLT-4 leukemia) was 69.4 µM and 84.4 µM, the GI50 (SN12C renal) was 24.7 µM and the TGI (SN12C renal) was > 100 µM. For the same compound, the GI50 (SK-MEL-28 melanoma) was 25.4 µM, the TGI (SK-MEL-28 melanoma) was 80 µM and 92.6 µM and the GI50 (SR leukemia) was 19.7 µM. For the same compound, the TGI (SR leukemia) was 48.7 µM and 57.9 µM, the GI50 (A498 renal) was 21.4 µM and the TGI (A498 renal) was 61.7 µM and > 100 µM. For the same compound, the GI50 (HT29 colon) was 27 µM and the TGI (HT29 colon) was > 80.8 µM.
